Data taken from patent US20100173935A1, “Muscarinic Receptor Agonists that are Effective in the Treatment of Pain, Alzheimer's Disease and Schizophrenia” (AstraZeneca AB, priority 2006, published 2010).
Where two headings read alike, the source gives them in different places.

Tests used:
human M2 receptor = target: T1, human M2 receptor (Homo sapiens, UniProt P08172); assay: hM2 receptor GTPγS binding; format: biochemical
T1 construct: purchased Perkin-Elmer RBHM2M; host or cells: CHO cell membranes
T1 sequence (P08172 1-466): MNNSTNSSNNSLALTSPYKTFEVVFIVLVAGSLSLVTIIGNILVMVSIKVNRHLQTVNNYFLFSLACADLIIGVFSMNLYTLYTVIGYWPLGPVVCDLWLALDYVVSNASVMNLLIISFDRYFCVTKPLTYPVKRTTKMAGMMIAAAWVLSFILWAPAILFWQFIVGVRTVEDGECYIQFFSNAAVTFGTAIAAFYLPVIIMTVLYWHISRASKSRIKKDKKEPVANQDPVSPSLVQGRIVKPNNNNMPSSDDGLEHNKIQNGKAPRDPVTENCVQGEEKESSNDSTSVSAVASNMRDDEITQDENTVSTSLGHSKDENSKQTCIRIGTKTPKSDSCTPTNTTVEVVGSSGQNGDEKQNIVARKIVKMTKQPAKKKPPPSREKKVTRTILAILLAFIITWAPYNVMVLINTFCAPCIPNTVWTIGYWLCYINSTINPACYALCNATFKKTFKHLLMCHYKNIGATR
Method: Membranes produced from Chinese hamster ovary cells (CHO) expressing the cloned human M2 receptor (human Muscarinic receptor subtype 2, gene bank access NM_000739), were obtained from Perkin-Elmer (RBHM2M). The membranes were thawed at 37° C., passed 3 times through a 23-gauge blunt-end needle, diluted in the GTPγS binding buffer (50 mM Hepes, 20 mM NaOH, 100 mM NaCl, 1 mM EDTA, 5 mM MgCl2, pH 7.4, […] DTT). The EC50, IC50 and Emax of the compounds of the invention were evaluated from 10-point dose-response curves (three fold concentration range) done in 60 μl in 384-well non-specific binding surface plate (Corning). Ten microliters from the dose-response curves plate (5× concentration) were transferred to another 384 well plate containing the following: 10 μg of hM2 membranes, 500 μg of Flashblue beads (Perkin-Elmer) and GDP in a 25 μl volume. An additional 15 μl containing 3.3× (55000 dpm) of GTRγ35S (0.4 nM final) were added to the wells resulting in a total well volume of 50 μl. Basal and maximal stimulated [^35S]GTPγS binding were determined in absence and presence of 30 μM of acetylcholine agonist. The membranes/beads mix were pre-incubated for 15 minutes at room temperature with 25 μM GDP prior to distribution in plates (12.5 μM final). The reversal of acetylcholine-induced stimulation (2 μM final) of [^35S]GTPγS binding was used to assay the antagonist properties (IC50) of the compounds. The plates were incubated for 60 minutes at room temperature with shaking, then centrifuged at 2000 rpm for 5 minutes. The radioactivity (cpm) were counted in a Trilux (Perkin-Elmer).
Values of EC50, IC50 and Emax were obtained using sigmoidal fits of a non-linear curve-fitting program (XLfit version 5.0.6 from ID Business Solutions Limited, Guildford, UK) of percent stimulated [^35S]GTPγS binding vs. log(molar ligand).
All EC50 and IC50 values are reported as arithmetic means t standard error of mean of ‘n’ independent experiments. […] The IC50 was the concentration of the compound of the invention at which 50% inhibition of acetylcholine [^35S]GTPγS binding stimulation has been observed.

human M4 receptor = target: T2, human M4 receptor (Homo sapiens, UniProt P08173); assay: hM4 receptor GTPγS binding; format: biochemical
T2 construct: purchased Perkin-Elmer RBHM4M; host or cells: CHO cell membranes
T2 sequence (P08173 1-479): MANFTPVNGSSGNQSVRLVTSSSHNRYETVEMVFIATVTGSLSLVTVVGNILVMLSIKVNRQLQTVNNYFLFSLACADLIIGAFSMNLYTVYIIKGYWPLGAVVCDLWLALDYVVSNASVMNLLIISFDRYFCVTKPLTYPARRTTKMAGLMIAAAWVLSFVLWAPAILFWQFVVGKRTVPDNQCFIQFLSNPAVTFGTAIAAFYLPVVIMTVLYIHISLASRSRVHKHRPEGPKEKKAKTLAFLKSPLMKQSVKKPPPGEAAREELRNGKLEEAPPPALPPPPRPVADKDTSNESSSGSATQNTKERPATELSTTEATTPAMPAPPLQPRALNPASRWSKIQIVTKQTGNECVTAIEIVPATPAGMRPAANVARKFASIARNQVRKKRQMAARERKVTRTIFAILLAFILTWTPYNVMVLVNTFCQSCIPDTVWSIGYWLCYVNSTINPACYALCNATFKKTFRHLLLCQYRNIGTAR
Method: Membranes produced from Chinese hamster ovary cells (CHO) expressing the cloned human M4 receptor (human Muscarinic receptor subtype 4, gene bank access NM_000741), were obtained from Perkin-Elmer (RBHM4M). The membranes were thawed at 37° C., passed 3 times through a 23-gauge blunt-end needle, diluted in the GTPγS binding buffer (50 mM Hepes, 20 mM NaOH, 100 mM NaCl, 1 mM EDTA, 5 mM MgCl2, pH 7.4, 100 μM DTT). The EC50, IC50 and Emax of the compounds of the invention were evaluated from 10-point dose-response curves (three fold concentration range) done in 60 μl in 384-well non-specific binding surface plate (Corning). Ten microliters from the dose-response curves plate (5× concentration) were transferred to another 384 well plate containing the following: 10 μg of hM4 membranes, 500 μg of Flashblue beads (Perkin-Elmer) and GDP in a 25 μl volume. An additional 15 μl containing 3.3× (55000 dpm) of GTPγS (0.4 nM final) were added to the wells resulting in a total well volume of […]. Basal and maximal stimulated [^35S]GTPγS binding were determined in absence and presence of 30 μM of acetylcholine agonist. The membranes/beads mix were pre-incubated for 15 minutes at room temperature with 40 μM GDP prior to distribution In plates (20 μM final). The reversal of acetylcholine-induced stimulation (10 μM final) of [^35S]GTPγS binding was used to assay the antagonist properties (IC50) of the compounds. The plates were incubated for 60 minutes at room temperature with shaking, then centrifuged at 2000 rpm for 5 minutes. The radioactivity (cpm) were counted in a Trilux (Perkin-Elmer).
Values of EC50, IC50 and Emax were obtained using sigmoidal fits of a non-linear curve-fitting program (XLfit version 5.0.6 from ID Business Solutions Limited, Guildford, UK) of percent stimulated [^35S]GTRγS binding vs. log(molar ligand).
All EC50 and IC50 values are reported as arithmetic means±standard error of mean of ‘n’ independent experiments. […] The IC50 was the concentration of the compound of the invention at which 50% inhibition of acetylcholine [^35S]GTRγS binding stimulation has been observed.

[1] = CHO membranes expressing cloned human M2, [35S]GTPγS binding, read-out: hM2 EC50
[2] = CHO membranes expressing cloned human M4, [35S]GTPγS binding, read-out: hM4 EC50

Row | SMILES | EC50 (human M2 receptor) [µM] | EC50 (human M4 receptor) [µM] | EC50 (human M2 receptor; [1]) [µM] | EC50 (human M4 receptor; [2]) [µM]
1 | CCOC(=O)N1CC[C@@H](N2CCC(n3c(=O)[nH]c4ccc(F)cc43)CC2)C1 (single isomer, unassigned) [Example 36] | 4.65 | > 30 |  | 
2 | O=C(C1CCCC1)N1CC[C@H](N2CCC(n3c(=O)[nH]c4ccccc43)CC2)C1 [Example 19, 1-{1-[(3S)-1-(cyclopentylcarbonyl)pyrrolidin-3-yl]piperidin-4-yl}-1,3-dihydro-2H-benzimidazol-2-one] | 0.245 | 0.577 |  | 
3 | O=C1CCCN1CCC(=O)N1CC[C@H](N2CCC(N3C(=O)Cc4ccccc43)CC2)C1 [Example 29, 1-(1-{(3S)-1-[3-(2-oxopyrrolidin-1-yl)propanoyl]pyrrolidin-3-yl}piperidin-4-yl)-1,3-dihydro-2H-indol-2-one] | 1.75 | > 30 |  | 
4 | CCOC(=O)N1CC[C@H](N2CCC(n3c(=O)[nH]c4ccc(F)cc43)CC2)C1 (single isomer, unassigned) [Example 35] | > 30 | > 30 |  | 
5 | CCOC(=O)N1CCC(N2CCC(C3C(=O)Nc4ccccc43)CC2)C1 (stereo not shown) [Example 13, Ethyl 3-[4-(2-oxo-2,3-dihydro-1H-indol-3-yl)piperidin-1-yl]pyrrolidine-1-carboxylate] |  |  | 3.54 | > 30
6 | O=C1CCCN1CCCC(=O)N1CC[C@H](N2CCC(n3c(=O)[nH]c4ccccc43)CC2)C1 [Example 22, 1-(1-{(3S)-1-[4-(2-oxopyrrolidin-1-yl)butanoyl]pyrrolidin-3-yl}piperidin-4-yl)-1,3-dihydro-2H-benzimidazol-2-one] | > 30 | > 30 |  | 
7 | CCOC(=O)N1CC[C@H](N2CCC(N3C(=O)Cc4ccccc43)CC2)C1 [Example 26, Ethyl (3S)-3-[4-(2-oxo-2,3-dihydro-1H-indol-1-yl)piperidin-1-yl]pyrrolidine-1-carboxylate] | 7.45 | > 30 |  | 
8 | CCOC(=O)N1CC[C@H](N2CCC(n3c(=O)[nH]c4ccc(C#N)cc43)CC2)C1 [Example 41, Ethyl (3S)-3-[4-(6-cyano-2-oxo-2,3-dihydro-1H-benzimidazol-1-yl)piperidin-1-yl]pyrrolidine-1-carboxylate] | > 3.33 | > 30 |  | 
9 | Cn1c(=O)n(C2CCN([C@H]3CCN(C(=O)CCN4CCCC4=O)C3)CC2)c2ccccc21 [Example 24, 1-methyl-3-(1-{(3S)-1-[3-(2-oxopyrrolidin-1-yl)propanoyl]pyrrolidin-3-yl}piperidin-4-yl)-1,3-dihydro-2H-benzimidazol-2-one] |  |  | > 30 | > 30
10 | CCOC(=O)N1CC[C@@H](N2CCC(n3c(=O)[nH]c4ccccc43)CC2)C1 [Example 16, Ethyl (3R)-3-[4-(2-oxo-2,3-dihydro-1H-benzimidazol-1-yl)piperidin-1-yl]pyrrolidine-1-carboxylate] |  |  | 3.29 | > 30
11 | CCOC(=O)N1CC[C@H](N2CCC(n3c(=O)[nH]c4ccc(Cl)cc43)CC2)C1 [Example 42, Ethyl (3S)-3-[4-(6-chloro-2-oxo-2,3-dihydro-1H-benzimidazol-1-yl)piperidin-1-yl]pyrrolidine-1-carboxylate] | 1.2 | ≥ 10 |  | 
